The test system of test [1] is platelet aggregation induced by PAF. In words: Anti-PAF activity: inhibition of platelet aggregation induced by PAF in platelet rich plasma. Particulars: Oryctolagus cuniculus, PAF 10 nM, test compound concentration 30 μM, read-out: Inhibitory rate. It is filed as cell-based, rabbit. The procedure: Anti-PAF activity of purine derivatives of the present invention was evaluated in the inhibition of platelet aggregation induced by PAF (platelet activation factor).
In the present evaluation, blood was drawn from rabbit and 9 volumes of the blood was added with 1 volume of 3.8% sodium citrate solution, centrifuged at 2,000 rpm for 3 min. to give platelet rich plasma (PRP). In a platelet aggregation determination apparatus, 200 μl of the PRP solution and 25 μl of a solution prepared from a predetermined amount of the test compound were mixed and incubated for 2 min. The incubated mixture was added with 25 μl of a solution containing a predetermined amount of PAF to cause platelet aggregation induced by PAF in the test solution. A concentration of PAF was 10 nM in the test solution. The inhibitory rate against platelet aggregation induced by PAF was calculated from the changes of transmission accompanied by the platelet aggregation.
Various concentrations of the test compounds in the test solution were selected to investigate the relationship between the concentration and the inhibitory rate for the evaluation of inhibitory rate of platelet aggregation induced by PAF. […] The inhibitory rate for the positive control compound, CV-3988 (rac-3-(N-n-octadecylcarbamoyl)-2-methoxypropyl-2-thiazolium ethyl phosphate) is also shown in Table 4.

The test system is the same in test [2]. Particulars: Life Science, 32, 1975-1982 (1983); cited from earlier work.
Test [3] deals with TXA2 synthesis (crude TXA2 synthetase). Conditions: J. Med. Chem., 24, 1139-1149 (1981); cited from earlier work.
For test [4], the target named is TXA2 synthesis (crude TXA2 synthetase). In words: Inhibition of TXA2 synthesis (crude TXA2 synthetase, labeled arachidonic acid, RIA). In kind it is biochemical, human. Conditions: TXA2 formation, 37° C., 10 min. The method, then:
Inhibitory effect against TXA2 synthesis was evaluated by the method shown below determining the formation of TXA2 as an arachidonic acid metabolite in the presence of purine derivatives of the present invention.
TXA2 (thromboxane A2) is reported to be synthesized by TXA2 synthetase in arachidonic acid cascade via a cyclic peroxide (PGH2) formed by cyclooxygenase system. Crude TXA2 synthetase was prepared by the following method in the present invention. Blood drawn from healthy volunteer was centrifuged at 200 G for 15 min. and the resulting supernatant was further centrifuged at 2,000 G for 10 min. to give precipitates. The precipitates were homogenized in 0.01M phosphate buffer and centrifuged at 1,000 G for 10 min. to give a supernatant. The resultant supernatant was used as a crude TXA2 synthetase in the following processes. […] The reaction solution was incubated at 37° C. for 10 min. and TXA2 formed in the reaction mixture was determined by RIA method using a commercially available kit (Amersham Co., Ltd., RIA kit). The inhibitory rate was calculated from the difference between the determined amount of formed TXA2 and that carried out in the absence of the test compound. When the difference of formed amount of TXA2 was 0 (zero), then the inhibitory rate was made 0% and when the formation of TXA2 was equal to that of solvent control without TXA2 synthetase, then the inhibitory rate was made 100%.
The inhibitory rate was estimated for various concentrations of said test compounds and the concentration of 50%-inhibition (IC50) was regressively calculated. The inhibitory effect against TXA2 formation was evaluated using IC50.

Where a name gives a salt, the structure may show the parent alone.

For `CCCCCCCCCCCCCCCCCCNC(=O)OCC(COP(=O)([O-])OCC[n+]1ccsc1)OC` (racemic) [CV-3988, rac-3-(N-n-octadecylcarbamoyl)-2-methoxypropyl-2-thiazolium ethyl phosphate, reference compound], in test [1], the inhibition at 30 µM came to 78%. The “anti-PAF activity (literature, in words)” value in test [2] is reported as “high anti-PAF activity”.

Regarding `O=C(O)/C=C/c1ccc(Cn2ccnc2)cc1` [Ozagrel HCl, reference compound], in test [3], the “inhibitory effect against TXA2 synthesis (literature, in words)” value is “very high inhibitory effect against TXA2 synthesis”. Besides, half-maximal inhibition in test [4] (IC50) was put at 17 nM.

The record behind these values is patent publication US5602140A, “Purine derivatives and suppressants for inflammatory diseases” (Japan Energy Corporation, priority 1994, dated 1997).
